Reference: patent US10294202B2, “Pyrrolidinones as herbicides” (FMC Corporation, priority 2013, dated 2019)

Legend:
[1] = test system: barnyardgrass; test: Test A pre-/postemergence herbicide test; type: in vivo, Echinochloa crus-galli
Summary of the method: (§1)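 Seeds sown in loam soil/sand blend received a preemergence directed soil spray of test chemical in non-phytotoxic solvent with surfactant; postemergence plants (2–10 cm, one- to two-leaf stage) were sprayed with the same formulation. After about 10 days in greenhouse, injury was rated visually versus untreated controls, 0 (no effect) to 100 (complete control).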

[2] = test system: barnyardgrass; test: Test B flooded paddy test; type: in vivo, Echinochloa crus-galli; conditions: 500 g ai/ha, Flood; scale of 0 to 100 where 0 is no effect and 100 is complete control
Summary of the method: (§2)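 In-water application to pots flooded 3 cm deep, plants at 2-leaf stage. Held in greenhouse 13–15 days at constant flood depth. Scored 0–100 by eye against controls.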

[3] = test system: blackgrass; test: Test A postemergence herbicide test; type: in vivo, Alopecurus myosuroides; conditions: for Plant response rating, Blackgrass: 125 g ai/ha, 0 to 100 scale, 0 no effect, 100 complete control; for Blackgrass plant response rating (0 to 100 scale, 0 is no effect, 100 is complete control): 500 g ai/ha
Summary of the method: (§3)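 Blackgrass and galium grown in pots of loam soil–sand blend, treated postemergence at 2–10 cm height, one- to two-leaf stage. Plants kept in greenhouse ~10 days, then visually rated for injury against untreated controls on a 0–100 scale (0 no effect, 100 complete control).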

[4] = test system: giant foxtail; test: Test A pre-/postemergence herbicide test; type: in vivo, Setaria faberii; conditions: for Plant response rating, Foxtail, Giant: 0 to 100 scale
Summary of the method: as §1

[5] = test system: kochia; test: Test A pre-/postemergence herbicide test; type: in vivo, Kochia scoparia; conditions: for Plant response rating, Kochia: 0 to 100 scale
Summary of the method: as §1

[6] = test system: rice; test: Test B flooded paddy test; type: in vivo, Oryza sativa; conditions: 500 g ai/ha, Flood; scale of 0 to 100 where 0 is no effect and 100 is complete control
Summary of the method: as §2

[7] = test system: ragweed; test: Test A pre-/postemergence herbicide test; type: in vivo, Ambrosia elatior; conditions: for Plant response rating, Ragweed: 0 to 100 scale
Summary of the method: as §1

[8] = test system: ryegrass, Italian; test: Test A pre-/postemergence herbicide test; type: in vivo, Lolium multiflorum; conditions: for Plant response rating, Ryegrass, Italian: 0 to 100 scale
Summary of the method: as §1

[9] = test system: galium; test: Test A postemergence herbicide test; type: in vivo, Galium aparine; conditions: for Plant response rating, Galium: 125 g ai/ha, 0 to 100 scale, 0 no effect, 100 complete control; for Galium plant response rating (0 to 100 scale, 0 is no effect, 100 is complete control): 500 g ai/ha
Summary of the method: as §3

[10] = test system: pigweed; test: Test A pre-/postemergence herbicide test; type: in vivo, Amaranthus retroflexus; conditions: for Plant response rating, Pigweed: 0 to 100 scale
Summary of the method: as §1

[11] = test system: ducksalad; test: Test B flooded paddy test; type: in vivo, Heteranthera limosa; conditions: 500 g ai/ha, Flood; scale of 0 to 100 where 0 is no effect and 100 is complete control
Summary of the method: as §2

[12] = test system: sedge, umbrella; test: Test B flooded paddy test; type: in vivo, Cyperus difformis; conditions: 500 g ai/ha, Flood; scale of 0 to 100 where 0 is no effect and 100 is complete control
Summary of the method: as §2

[13] = test system: wheat; test: Test A pre-/postemergence herbicide test; type: in vivo, Triticum aestivum; conditions: Postemergence; for Plant response rating, Wheat: 125 g ai/ha, 0 to 100 scale, 0 no effect, 100 complete control; for Wheat plant response rating (0 to 100 scale, 0 is no effect, 100 is complete control): 500 g ai/ha
Summary of the method: as §1

[14] = test system: corn; test: Test A pre-/postemergence herbicide test; type: in vivo, Zea mays; conditions: Postemergence; for Plant response rating, Corn: 125 g ai/ha, 0 to 100 scale, 0 no effect, 100 complete control; for Corn plant response rating (0 to 100 scale, 0 is no effect, 100 is complete control): 500 g ai/ha
Summary of the method: as §1

[15] = 125 g ai/ha, visual rating, 0 to 100 scale, 0 no effect, 100 complete control, approximately 10 days, preemergence
[16] = Postemergence, 125 g ai/ha, 0 to 100 scale, 0 no effect, 100 complete control
[17] = preemergence, 500 g ai/ha, 0 to 100 scale (0 no effect, 100 complete control)
[18] = 125 g ai/ha, visual rating, 0 no effect, 100 complete control, approximately 10 days, preemergence
[19] = Postemergence, 125 g ai/ha, 0 no effect, 100 complete control

| SMILES | Plant response rating, Barnyardgrass [1, 15] | Plant response rating, Barnyardgrass [1, 16] | Barnyardgrass plant response rating (0 to 100 scale, 0 is no effect, 100 is complete control) ([1]; Postemergence, 500 g ai/ha) | Plant response rating, Barnyardgrass [1, 17] | Plant response rating, Barnyardgrass [2] | Plant response rating, Blackgrass [3] | Blackgrass plant response rating (0 to 100 scale, 0 is no effect, 100 is complete control) [3] | Plant response rating, Foxtail, Giant [4, 18] | Plant response rating, Foxtail, Giant [4, 19] | Foxtail, Giant plant response rating (0 to 100 scale, 0 is no effect, 100 is complete control) ([4]; Postemergence, 500 g ai/ha) | Plant response rating, Foxtail, Giant ([4]; preemergence, 500 g ai/ha) | Plant response rating, Kochia [5, 18] | Plant response rating, Kochia [5, 19] | Kochia plant response rating (0 to 100 scale, 0 is no effect, 100 is complete control) ([5]; Postemergence, 500 g ai/ha) | Plant response rating, Kochia ([5]; preemergence, 500 g ai/ha) | Plant response rating, Rice [6] | Plant response rating, Ragweed [7, 18] | Plant response rating, Ragweed [7, 19] | Ragweed plant response rating (0 to 100 scale, 0 is no effect, 100 is complete control) ([7]; Postemergence, 500 g ai/ha) | Plant response rating, Ragweed ([7]; preemergence, 500 g ai/ha) | also measured |
| --- | --- | --- | --- | --- | --- | --- | --- | --- | --- | --- | --- | --- | --- | --- | --- | --- | --- | --- | --- | --- | --- |
| Cc1ccc(C2CNC(=O)C2C(=O)Nc2ccccc2F)cc1F (racemic) [Compound 144] | 90 | 90 | 90 | 90 | 65 | 0 | 30 | 60 | 40 | 70 | 80 | 0 | 0 | 0 | 0 | 0 | 0 | 0 | 0 | 0 | Plant response rating, Ryegrass, Italian [8, 18]: 0; Plant response rating, Ryegrass, Italian [8, 19]: 0; Ryegrass, Italian plant response rating (0 to 100 scale, 0 is no effect, 100 is complete control) ([8]; Postemergence, 500 g ai/ha): 40; Plant response rating, Ryegrass, Italian ([8]; preemergence, 500 g ai/ha): 20; Plant response rating, Galium [9]: 10; Galium plant response rating (0 to 100 scale, 0 is no effect, 100 is complete control) [9]: 70; Plant response rating, Pigweed [10, 18]: 0; Plant response rating, Pigweed [10, 19]: 0; Pigweed plant response rating (0 to 100 scale, 0 is no effect, 100 is complete control) ([10]; Postemergence, 500 g ai/ha): 0; Plant response rating, Pigweed ([10]; preemergence, 500 g ai/ha): 0; Plant response rating, Ducksalad [11]: 100; Plant response rating, Sedge, Umbrella [12]: 0; Plant response rating, Wheat [13]: 0; Wheat plant response rating (0 to 100 scale, 0 is no effect, 100 is complete control) [13]: 0; Plant response rating, Corn [14]: 0; Corn plant response rating (0 to 100 scale, 0 is no effect, 100 is complete control) [14]: 20 |
| Cc1ccc(C2CNC(=O)C2C(=O)Nc2ccccc2Cl)cc1F (racemic) [Compound 148] | 30 | 50 | 90 | 90 | 40 | 0 | 0 | 40 | 20 | 30 | 90 | 30 | 0 | 0 | 30 | 0 | 0 | 0 | 0 | 0 | Plant response rating, Ryegrass, Italian [8, 18]: 0; Plant response rating, Ryegrass, Italian [8, 19]: 0; Ryegrass, Italian plant response rating (0 to 100 scale, 0 is no effect, 100 is complete control) ([8]; Postemergence, 500 g ai/ha): 0; Plant response rating, Ryegrass, Italian ([8]; preemergence, 500 g ai/ha): 0; Plant response rating, Galium [9]: 0; Galium plant response rating (0 to 100 scale, 0 is no effect, 100 is complete control) [9]: 40; Plant response rating, Pigweed [10, 18]: 0; Plant response rating, Pigweed [10, 19]: 0; Pigweed plant response rating (0 to 100 scale, 0 is no effect, 100 is complete control) ([10]; Postemergence, 500 g ai/ha): 0; Plant response rating, Pigweed ([10]; preemergence, 500 g ai/ha): 0; Plant response rating, Ducksalad [11]: 100; Plant response rating, Sedge, Umbrella [12]: 0; Plant response rating, Wheat [13]: 0; Wheat plant response rating (0 to 100 scale, 0 is no effect, 100 is complete control) [13]: 0; Plant response rating, Corn [14]: 0; Corn plant response rating (0 to 100 scale, 0 is no effect, 100 is complete control) [14]: 0 |
| Cc1ccc(C2CNC(=O)C2C(=O)Nc2ccccc2F)cc1 (racemic) [Compound 149] | 90 | 70 | 80 | 90 | 70 | 30 | 40 | 70 | 40 | 70 | 90 | 10 | 50 | 60 | 70 | 0 | 60 | 30 | 40 | 80 | Plant response rating, Ryegrass, Italian [8, 18]: 20; Plant response rating, Ryegrass, Italian [8, 19]: 10; Ryegrass, Italian plant response rating (0 to 100 scale, 0 is no effect, 100 is complete control) ([8]; Postemergence, 500 g ai/ha): 50; Plant response rating, Ryegrass, Italian ([8]; preemergence, 500 g ai/ha): 70; Plant response rating, Galium [9]: 50; Galium plant response rating (0 to 100 scale, 0 is no effect, 100 is complete control) [9]: 60; Plant response rating, Pigweed [10, 18]: 0; Plant response rating, Pigweed [10, 19]: 0; Pigweed plant response rating (0 to 100 scale, 0 is no effect, 100 is complete control) ([10]; Postemergence, 500 g ai/ha): 0; Plant response rating, Pigweed ([10]; preemergence, 500 g ai/ha): 0; Plant response rating, Ducksalad [11]: 100; Plant response rating, Sedge, Umbrella [12]: 0; Plant response rating, Wheat [13]: 0; Wheat plant response rating (0 to 100 scale, 0 is no effect, 100 is complete control) [13]: 20; Plant response rating, Corn [14]: 10; Corn plant response rating (0 to 100 scale, 0 is no effect, 100 is complete control) [14]: 70 |
| Cc1ccc(C2CNC(=O)C2C(=O)Nc2cccc(F)c2F)cc1 (racemic) [Compound 151] | 90 | 80 | 90 | 90 | 90 | 40 | 70 | 80 | 60 | 70 | 90 | 90 | 70 | 80 | 90 | 0 | 90 | 60 | 70 | 90 | Plant response rating, Ryegrass, Italian [8, 18]: 10; Plant response rating, Ryegrass, Italian [8, 19]: 30; Ryegrass, Italian plant response rating (0 to 100 scale, 0 is no effect, 100 is complete control) ([8]; Postemergence, 500 g ai/ha): 50; Plant response rating, Ryegrass, Italian ([8]; preemergence, 500 g ai/ha): 60; Plant response rating, Galium [9]: 60; Galium plant response rating (0 to 100 scale, 0 is no effect, 100 is complete control) [9]: 70; Plant response rating, Pigweed [10, 18]: 0; Plant response rating, Pigweed [10, 19]: 50; Pigweed plant response rating (0 to 100 scale, 0 is no effect, 100 is complete control) ([10]; Postemergence, 500 g ai/ha): 60; Plant response rating, Pigweed ([10]; preemergence, 500 g ai/ha): 0; Plant response rating, Ducksalad [11]: 100; Plant response rating, Sedge, Umbrella [12]: 0; Plant response rating, Wheat [13]: 0; Wheat plant response rating (0 to 100 scale, 0 is no effect, 100 is complete control) [13]: 60; Plant response rating, Corn [14]: 0; Corn plant response rating (0 to 100 scale, 0 is no effect, 100 is complete control) [14]: 50 |
